Reference: paper PMC10748125 (Viruses, 2023)

Legend:
[1] = system: HCoV-NL63; test: Time-of-addition assay; assay type: cell-based
[2] = Cytotoxicity assay (CCK-8), NCTC clone 929; assay type: cell-based, murine; conditions: mouse, NCTC clone 929 cells; Figure 1C MHV plot label; read-out: NCTC clone CC50 (label inside plot)
[3] = system: MRC-5 cells; conditions: human
[4] = system: HCoV-OC43; test: Viral yield reduction (VYR) assay, HCoV-OC43 in HCT-8 cells; conditions: read-out: EC50 (μM) HCoV-OC43, progeny virus 24 h post-infection, mean ± SD
[5] = system: HCoV-NL63; test: Viral yield reduction (VYR) assay, HCoV-NL63 in Caco-2 cells; conditions: read-out: EC50 (μM) HCoV-NL63, progeny virus 24 h post-infection, mean ± SD
[6] = Cytotoxicity assay (CCK-8), Caco-2; assay type: cell-based; conditions: human, CCK-8, 48 h treatment
[7] = system: HCoV-229E; test: Viral yield reduction (VYR) assay, HCoV-229E in MRC-5 cells; conditions: read-out: EC50 (μM) HCoV-229E, progeny virus 24 h post-infection, mean ± SD
[8] = Cytotoxicity assay (CCK-8), CRFK; assay type: cell-based, feline; conditions: cat, CRFK cells; Figure 1C CCoV plot label; read-out: CRFK CC50 (label inside plot)
[9] = Cytotoxicity assay (CCK-8), HCT-8; assay type: cell-based; conditions: human, HCT-8 cells; CCK-8, 48 h treatment
[10] = in vitro; conditions: human
[11] = 2 μM VV116, 2 μM Remdesivir, 300 μg/mL heparan sulfate, MOI 0.1, 24 h post-infection

Row | Compound | Antiviral activity when added at the post-entry phase (NP Western blot) [1, 11] | Antiviral activity when added during the entry phase (NP Western blot) [1, 11] | Time-of-addition result overall ([1]; 2 μM Remdesivir, compared with VV116) | CC50 at 48 h [2] [µM] | CC50 [3] [µM] | EC50 [4] [µM] | EC50 [5] [µM] | CC50 at 48 h [6] [µM] | EC50 [7] [µM] | CC50 at 48 h [8] [µM] | CC50 at 48 h [9] [µM] | CC50 [10] [µM]
1 | heparan sulfate | abolished | demonstrated antiviral activity |  |  |  |  |  |  |  |  |  | 
2 | CCC(CC)COC(=O)[C@H](C)N[P@](=O)(OC[C@H]1O[C@@](C#N)(c2ccc3c(N)ncnn23)[C@H](O)[C@@H]1O)Oc1ccccc1 [Remdesivir] |  |  | comparable to that obtained for VV116 | > 100 | > 100 | 0.069 ± 0.001 | 0.495 ± 0.01 | > 100 | 0.056 ± 0.002 | > 100 | > 100 | > 100
